According to patent publication US20230023332A1, “OLEAN-PHENYLACRYLAMIDE DERIVATIVE, METHOD FOR PREPARING SAME, AND USE THEREOF” (Lunan Pharmaceutical Group Corporation, priority 2019, published 2023):
Like-named read-outs stand apart in the source and are kept apart here.

How the values were obtained:
[1] = tested on: human breast cancer cell strain MCF-7; assay: MTT proliferation inhibition, MCF-7; assay type: cell-based; details: 48 h, read-out: Inhibitory activity (IC50) against proliferation, MCF-7
Protocol: (§1) The anti-tumor activity of the compounds of the present invention was determined by the method of methyl thiazolyl tetrazolium (MTT), Bardoxolone Methyl (CDDO-Me) being selected as a positive control medicament.
(§2) Instruments: ultra-clean bench (SW-CJ-1FD, AIRTECH, Suzhou Antai Airtech Co. Ltd.), constant-temperature CO2 incubator (3111, Thermo, USA), inverted biomicroscope (IX71, OLYMPUS, Japan), ELISA microplate reader (Model 680, BIO-RAD, USA), platform shaker (Kylin-bell lab Instruments), autoclave (YXO.SG4I.280, Shanghai Huaxian), and centrifuge (SIGMA).
(§3) Reagents: DMEM (GIBCO), fetal bovine serum (GIBCO), trypsin (SIGMA), and DMSO (SIGMA).
(§4) Cell strains: human non-small cell lung cancer cell strain A549, human liver cancer cell strain HepG2, human breast cancer cell strain MCF-7, human renal tubular epithelial cells HK-2, rat embryonic cardiomyocytes H9C2 (all provided by Jiangsu KeyGEN BioTECH Co., Ltd.).
(§5) Methods: the cryopreserved cell strains were resuscitated and cultured in a CO2 incubator at a constant temperature of 37° C. with liquid being changed once daily. Plating was carried out when the cell strains were in a good state in the exponential phase. 1 mL of 0.25% trypsin solution was added for digestion for 1-2 min. The cell status was observed under the microscope, and when the adherent cells became round and shrunk, the digestion solution was aspirated and 1-2 mL of a DMEM medium containing 10% fetal bovine serum was added to obtain a cell suspension, on which a cell count was performed. The amount of required cell suspension was calculated on the basis of 5×10^4 cells per well and the total number of wells. The cell suspension was inoculated on a 96-well plate at 100 μL/well, the surroundings being blocked with PBS, followed by incubation in a CO2 incubator at a constant temperature of 37° C. for 24 h.
(§6) The test medicament, positive control medicament CDDO-Me, and blank control group DMSO were prepared in DMEM media to a final concentration of 5 μM/well, each medicament being placed in 3 replicate wells, followed by incubation for 48 h. The MTT reagent was added to the 96-well plate at 10 μL/well to further incubate for 4 h. The medium in the plate was aspirated and 100 μL of DMSO was added to each well, followed by shaking on the platform shaker for 10 min such that the crystals were dissolved. The absorbance of each well was examined by the ELISA microplate reader at a wavelength of 570 nm, and the cell inhibition rate was calculated according to the formula hereinafter. The mean value of three preliminary screening results was taken as the final inhibition rate thereof.
(§7) Cell inhibition rate (%)=[(OD value of blank control−OD value of dosing cohort)/OD value of blank control group]×100%

[2] = tested on: rat embryonic cardiomyocytes H9C2; assay: MTT proliferation inhibition / toxicity, H9C2; assay type: cell-based; details: for IC50: H9C2 cardiomyocytes, MTT, 48 h, read-out: Inhibitory activity (IC50) against proliferation, H9C2; for inhibitory activity against normal cardiomyocytes H9C2 relative to CDDO-Me: fraction of the inhibitory activity of CDDO-Me
Protocol: as §1, §2, §3, §4, §5, §6, §7

[3] = tested on: human liver cancer cell strain HepG2; assay: MTT proliferation inhibition, HepG2; assay type: cell-based; details: HepG2 cells, 48 h, read-out: Inhibitory activity (IC50) against proliferation, HepG2
Protocol: as §1, §2, §3, §4, §5
The MTT reagent was added to the 96-well plate at 10 μL/well to further incubate for 4 h. The medium in the plate was aspirated and 100 μL of DMSO was added to each well, followed by shaking on the platform shaker for 10 min such that the crystals were dissolved. […] The mean value of three preliminary screening results was taken as the final inhibition rate thereof.
as §7

[4] = tested on: human non-small cell lung cancer cell strain A549; assay: MTT proliferation inhibition, A549; assay type: cell-based; details: A549 cells, 48 h, read-out: Inhibitory activity (IC50) against proliferation, A549
Protocol: as §1, §2, §3, §4, §5, §6, §7

[5] = tested on: S180 ascitic tumor cells; assay: Inhibitory effect on tumors in S180 tumor-bearing mice; assay type: in vivo, ICR mice; details: for Tumor Mass / Tumor inhibition rate: 7 consecutive days; for Splenic index: 7 days
Protocol: (§8) 1) Experimental animals: 72 female ICR mice between 6 and 8 weeks of age; experimental cells: S180 ascitic tumor cells.
(§9) 8 animals were used as the normal group, and the rest of the mice were subjected to modeling by the following method.
(§10) 2) Proliferation and passaging of S180 ascitic tumor cells: S180 ascitic tumor cells cryopreserved at −80° C. were thawed in a water bath at 37° C., placed in a 12 mL centrifuge tube, to which an appropriate amount of saline was added, and centrifuged at 1200 rpm for 5 min. The supernatant was discarded, then the cells were resuspended in 300 μL of saline and intraperitoneally injected into an ICR mouse. As the mouse's abdomen swelled up, intraperitoneal injection of the cells in a second ICR mouse was performed, and the cells were ready for inoculation when the abdomen thereof swelled up.
(§11) 3) Inoculation of S180 tumor cells in the armpit of mice: S180 cells cultured to 2 passages were centrifuged and saline was added to obtain a concentration of 1×10^7 cells/mL. A volume of 100 μL of the cells were injected subcutaneously into armpit of mice. A mouse tumor-bearing model was developed.
(§12) The model mice were divided into a tumor-bearing model group, a compound I-7 5 mg/kg group, a compound I-7 15 mg/kg group, a compound I-12 5 mg/kg group, a compound I-12 15 mg/kg group, a compound I-16 5 mg/kg group, a compound I-16 15 mg/kg group and a CDDO-Me 15 mg/kg group.
(§13) There were 8 mice in each group.
(§14) 4) Dosing: the medicaments were administered intragastrically when the tumor grew out.
Compound I-7 of 5 mg/kg was administered in the compound I-7 5 mg/kg group;
compound I-7 of 15 mg/kg was administered in the compound I-7 15 mg/kg group;
compound I-12 of 5 mg/kg was administered in the compound I-12 5 mg/kg group;
compound I-12 of 15 mg/kg was administered in the compound I-12 15 mg/kg group;
compound I-16 of 5 mg/kg was administered in the compound I-16 5 mg/kg group;
compound I-16 of 15 mg/kg was administered in the compound I-16 15 mg/kg group; and
CDDO-Me of 15 mg/kg was administered in the CDDO-Me 15 mg/kg group.
(§15) An equal volume of 0.5% croscarmellose sodium was administered to the normal group and the model group.
(§16) The dosing was executed for 7 consecutive days. The mice were dissected the next day following the last dosing.
(§17) Testing items: the body weight, spleen weight and tumor weight were measured. The spleens were ground on ice, followed by red blood cell lysis and incubation with FITC-CD11b, LY6C, and LY6G antibodies for 15 min, and then tested for CD11b+LY6Chi+ and CD11b+LY6G+ with flow cytometry.

[6] = tested on: M-MDSC, PMN-MDSC; assay: Spleen M-MDSC / PMN-MDSC by flow cytometry in S180 tumor-bearing mice; assay type: in vivo, ICR mice; details: 7 days; for M-MDSC: CD11b+LY6Chi+; for PMN-MDSC: CD11b+LY6G+
Protocol: as §8, §9, §10, §11, §12, §13, §14, §15, §16, §17

[7] = tested on: human renal tubular epithelial cells HK-2; assay: MTT proliferation inhibition / toxicity, HK-2; assay type: cell-based; details: for IC50: HK-2 cells, MTT, 48 h, read-out: Inhibitory activity (IC50) against proliferation, HK-2; for toxicity to human renal tubular epithelial cells HK-2: statement in words
Protocol: as §1, §2, §3, §4, §5, §6, §7

[8] = Homo sapiens, MCF7, MCF-7 cells

Row | IC50 [1, 8] | IC50 ([3]; Homo sapiens) | IC50 ([4]; Homo sapiens) | SMILES | IC50 [2] | inhibitory activity against normal cardiomyocytes H9C2 relative to CDDO-Me [2] | Tumor Mass ([5]; 5 mg/kg intragastric) | Tumor inhibition rate ([5]; 5 mg/kg intragastric) | Splenic index ([5]; 5 mg/kg intragastric) | Tumor Mass ([5]; 15 mg/kg intragastric) | Tumor inhibition rate ([5]; 15 mg/kg intragastric) | Splenic index ([5]; 15 mg/kg intragastric) | M-MDSC ([6]; 5 mg/kg intragastric) | PMN-MDSC ([6]; 5 mg/kg intragastric) | M-MDSC ([6]; 15 mg/kg intragastric) | PMN-MDSC ([6]; 15 mg/kg intragastric) | IC50 ([7]; Homo sapiens) | toxicity to human renal tubular epithelial cells HK-2 [7] | IC50 ([2]; Rattus norvegicus) | further results
1 | 958 ± 209 nM | 934 ± 11 nM | 888 ± 21 nM | CC1(C)CC[C@]2(NC(=O)/C=C(\C#N)c3ccc(C(F)(F)F)cc3)CC[C@]3(C)[C@H](C(=O)C=C4[C@@]5(C)C=C(C#N)C(=O)C(C)(C)[C@@H]5CC[C@]43C)[C@@H]2C1 [Compound I-16] |  |  | 1.49 ± 0.17 ^ g | 43.69% | 47.86 ± 5.73^###* 10*mg/g | 0.96 ± 0.14 g | 63.60% | 46.45 ± 5.20^###* 10*mg/g | 0.71 ± 0.08 % | 8.72 ± 2.09 % | 0.40 ± 0.07 % | 6.79 ± 1.55 % | 618 ± 72 nM | lower toxicity | 108 ± 7 nM | 
2 |  |  |  | COC(=O)[C@]12CCC(C)(C)C[C@H]1[C@H]1C(=O)C=C3[C@@]4(C)C=C(C#N)C(=O)C(C)(C)[C@@H]4CC[C@@]3(C)[C@]1(C)CC2 [CDDO-Me, 2-cyano-3,12-dioxoolean-1,9(11)-dien-28-oic acid methyl ester, reference compound] | 308 ± 10 nM |  |  |  |  | 1.67 ± 0.14 g | 36.75% | 53.61 ± 4.15 10*mg/g |  |  | 1.15 ± 0.12 % | 10.91 ± 1.62 % |  |  |  | IC50 ([1]; MCF-7 cells): 728 ± 288 nM; IC50 [3]: 326 ± 21 nM; IC50 [4]: 448 ± 12 nM; IC50 [7]: 335 ± 34 nM
3 | 1640 ± 462 nM | 974 ± 58 nM | 761 ± 32 nM | CC1(C)CC[C@]2(NC(=O)/C(C#N)=C/c3ccc(Cl)cc3)CC[C@]3(C)[C@H](C(=O)C=C4[C@@]5(C)C=C(C#N)C(=O)C(C)(C)[C@@H]5CC[C@]43C)[C@@H]2C1 [Compound I-12] |  | approximately 1/10 | 1.33 ± 0.11 g | 49.55% | 45.99 ± 7.68^##* 10*mg/g | 0.66 ± 0.14 g | 74.96% | 44.37 ± 5.27^###** 10*mg/g | 0.63 ± 0.13 % | 8.86 ± 1.53 % | 0.38 ± 0.23 % | 4.82 ± 0.62 % | 2430 ± 33 nM | lower toxicity | 3140 ± 1530 nM | 

Row | SMILES | IC50 [1, 8] | IC50 ([3]; Homo sapiens) | IC50 ([4]; Homo sapiens) | IC50 [2] | inhibitory activity against normal cardiomyocytes H9C2 relative to CDDO-Me [2] | Tumor Mass ([5]; 5 mg/kg intragastric) | Tumor inhibition rate ([5]; 5 mg/kg intragastric) | Splenic index ([5]; 5 mg/kg intragastric) | Tumor Mass ([5]; 15 mg/kg intragastric) | Tumor inhibition rate ([5]; 15 mg/kg intragastric) | Splenic index ([5]; 15 mg/kg intragastric) | M-MDSC ([6]; 5 mg/kg intragastric) | PMN-MDSC ([6]; 5 mg/kg intragastric) | M-MDSC ([6]; 15 mg/kg intragastric) | PMN-MDSC ([6]; 15 mg/kg intragastric) | IC50 ([7]; Homo sapiens) | toxicity to human renal tubular epithelial cells HK-2 [7] | IC50 ([2]; Rattus norvegicus) | further results
4 | CC1(C)CC[C@]2(NC(=O)/C(C#N)=C/c3ccccc3)CC[C@]3(C)[C@H](C(=O)C=C4[C@@]5(C)C=C(C#N)C(=O)C(C)(C)[C@@H]5CC[C@]43C)[C@@H]2C1 [Compound I-7] | 2225 ± 22 nM | 2720 ± 36 nM | 315 ± 68 nM | 3170 ± 1740 nM | approximately 1/10 | 1.53 ± 0.10 ^ g | 42.17% | 48.55 ± 4.62^##* 10*mg/g | 1.45 ± 0.12 g | 45.20% | 47.03 ± 6.54^##* 10*mg/g | 0.68 ± 0.22 % | 8.72 ± 1.13 % | 0.59 ± 0.09 % | 6.34 ± 1.47 % | 1780 ± 259 nM | lower toxicity |  | IC50 ([2]; Rattus norvegicus, H9c2, 48 h): 3180 ± 1740 nM
